Measurements: the NIST ThermoML archive (doi:10.1021/je049787p)
± gives the expanded uncertainty stated by the source.

Conditions: 101.3 kPa, Liquid; for electrical conductivity: Alternating current cell with electrodes

**Q.** For `C=CCn1cc[n+](C)c1.[Cl-]` [1-allyl-3-methylimidazolium chloride], which viscosity (293.15 K) is on record?
**A.** 66 ± 10 mPa·s

**Q.** What about the electrical conductivity (293.15 K) of the same compound?
**A.** 0.00382 ± 0.00038 S/m

**Q.** And the viscosity (303.15 K)?
**A.** 44.7 ± 5.9 mPa·s

**Q.** And the electrical conductivity (303.15 K)?
**A.** 0.0044 ± 0.00044 S/m

**Q.** And the viscosity (313.15 K)?
**A.** 25.3 ± 3.5 mPa·s

**Q.** And the electrical conductivity (313.15 K)?
**A.** 0.00501 ± 0.0005 S/m

**Q.** What about the viscosity (323.15 K) of the same compound?
**A.** 20.6 ± 2.8 mPa·s

**Q.** What about the electrical conductivity (323.15 K) of the same compound?
**A.** 0.00562 ± 0.00056 S/m

**Q.** What about the viscosity (333.15 K) of the same compound?
**A.** 16.2 ± 2.3 mPa·s

**Q.** What about the electrical conductivity (333.15 K) of the same compound?
**A.** 0.00624 ± 0.00062 S/m
